Columns and labels:
[1] = system: K562 human chronic myelogenous leukemia cell line; test: [3H]MTX influx in K562 cells; assay type: cell-based; conditions: 0.5 mM Z; data not shown
[2] = system: R2 clones transfected with human RFC expression plasmid; test: [3H]MTX transport in RFC-transfected R2 clones; assay type: cell-based
Method: To further confirm the involvement of RFC, we transfected the RFC-negative R2 subline of CCRF-CEM with a human RFC expression plasmid. Stably expressing clones were selected in 2 nM leucovorin (LV)-containing RPMI 1640 medium (R2 cannot replicate in this medium, while parental RFC-expressing CCRF-CEM can replicate). […] This supports RFC as mediating the transport potentiated by Z.

[3] = system: dCK-deficient subline of CCRF-CEM; test: [3H]MTX uptake in deoxycytidine kinase-deficient subline; assay type: cell-based, human; conditions: compared to parental CCRF-CEM
Method: Z metabolism by deoxycytidine kinase is not essential for Z potentiation. These experiments were conducted to determine if Z itself can cause potentiation orf needs to be metabolized to exert its effect. For these experiments, a deoxycytidine kinase (dCK)-deficient subline of CCRF-CEM was used. Although designated as dCK, this enzyme also phosphorylates the purines deoxyadenosine, deoxyguanosine, and fludarabine. Use of this subline allowed us to test the hypothesis that phosphorylation of Z to ZMP by dCK is essential for potentiation. […] Thus it appears that dCK is not absolutely required for Z potentiation, but may contribute to the metabolism.

[4] = human, in vivo; cited from earlier work
[5] = system: araC 8C subline of CCRF-CEM; test: [3H]MTX uptake in es-deficient araC 8C subline; assay type: cell-based, human; conditions: 30 min time course ±Z
Method: Z potentiation was evaluated: (1) in a subline of CCRF-CEM (araC 8C) deficient in the es (or ENT1) facilitated diffusion nucleoside transport system (this is the only nucleoside transporter present in CCRF-CEM cells); and (2) in the presence of specific inhibitors of the es nucleoside transporter. […] Note that potentiation by Z is large in these studies because they were performed in HBSS to avoid binding of inhibitors by serum proteins and Z potentiation is higher in HBSS than in RPMI1640. […] Concentration-dependence studies are proposed to quantitate the potency of each inhibitor (IC50).

CCRF-CEM cells [6] = test: [3H]leucovorin uptake in CCRF-CEM cells; assay type: cell-based, human; conditions: pre-incubation with Z alone, 1 μM [3H]LV
Method: Quantitation of folate and antifolate uptake. The method is essentially as follows. Briefly, logarithmically growing (3-5×10^5/ml) CCRF-CEM cells were harvested at room temperature by centrifugation at 1000×g for 5 min. After washing with the appropriate medium, cells were suspended at ≈2×10^7 cells/ml for use in transport studies. […] Anion-free MHS contains 250 mM sucrose and 20 mM HEPES, titrated to pH 7.4 with MgO. […] Uptake was measured as a function of time for 30 min (for rate and extent measurements) or over 5 min (studies requiring initial velocities). […] Uptake was terminated by diluting 100 μL samples into 1 ml of iced 0.9% NaCl. […] The supernatant was aspirated. The cell pellet was washed once with 1 ml iced 0.9% NaCl and centrifuged as above. The washed pellet was solubilized in 1 ml of 0.3% Triton X-100 by incubation for 60 min at 37° C. The solubilized pellet was transferred to a scintillation vial, 10 ml of Liquiscint (National Diagnostics, Atlanta, Ga.) was added and radioactivity was quantitated in a Beckman Model LS6500 liquid scintillation counter. Separate samples at the longest incubation time used in a particular experiment were harvested for HPLC analysis of intracellular contents as above, except that after the second wash the pellets were extracted with 1 ml boiling 0.1 M Na-phosphate, pH 5.5. The extract was clarified by centrifugation and the supernatant was filtered through an MPS-1 filter unit (Amicon) prior to HPLC analysis.

[7] = target: T1, es (or ENT1) facilitated diffusion nucleoside transport system (Homo sapiens, UniProt Q99808); test: Inhibition of Z potentiation of [3H]MTX uptake by es nucleoside transporter inhibitors; assay type: cell-based; conditions: [Z] 500 μM, HBSS
T1 construct: this is the only nucleoside transporter present in CCRF-CEM cells; endogenous in cells; host or cells: CCRF-CEM (parental), in HBSS
T1 sequence (Q99808 1-456): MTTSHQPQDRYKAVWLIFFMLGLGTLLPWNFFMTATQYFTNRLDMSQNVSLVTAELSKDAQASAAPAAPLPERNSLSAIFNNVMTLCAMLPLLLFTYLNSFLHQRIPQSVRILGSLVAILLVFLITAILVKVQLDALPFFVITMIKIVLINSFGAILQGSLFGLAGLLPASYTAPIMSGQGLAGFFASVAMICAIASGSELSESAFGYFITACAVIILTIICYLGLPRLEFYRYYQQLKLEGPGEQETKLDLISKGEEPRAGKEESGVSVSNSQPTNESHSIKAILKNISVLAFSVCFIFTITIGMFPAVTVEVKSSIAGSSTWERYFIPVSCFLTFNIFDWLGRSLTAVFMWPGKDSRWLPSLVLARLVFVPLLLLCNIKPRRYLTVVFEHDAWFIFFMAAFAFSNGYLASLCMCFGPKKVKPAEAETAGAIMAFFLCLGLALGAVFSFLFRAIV

CCRF-CEM cells [8] = test: Subcellular localization of [3H]MTX; assay type: cell-based, human
Method: Subcellular fractionation. […] Cells were diluted 9-fold in iced 0.9% NaCl, centrifuged at 1000×g for 5 min and washed once with 40 ml iced saline. All subsequent steps were performed at 4°. Cells were homogenized as previously described, except that hypotonic buffer at 20-fold the packed cell volume was used, and the homogenate was centrifuged for 6 min at 1000×g to yield a nuclear pellet (also containing unlysed cells and large debris) and a post-nuclear supernatant (PNS). Based on controls using nonradiolabeled cells, >91% of the cells would be lysed during homogenization. The PNS was centrifuged at 17,000×g to yield a combined mitochondria-lysosome pellet. The resulting supernatant was centrifuged at 100,000×g for 60 min to yield the 100,000×g supernatant (cytosol). The 100,000×g pellet (microsomes) and the combined mitochondria-lysosome pellet were each washed in isotonic buffer and centrifuged at their respective g-forces. All pellets were solubilized in 0.3% Triton X-100 by incubating at 37° for 1 hr; 1 ml was transferred to a scintillation vial for quantitation. Triton X-100 was added to the cytosol to a final concentration of 0.3% and a 1 ml aliquot was quantitated. Radioactivity in each fraction was corrected for a blank containing 0.3% Triton X-100.

Compound | Potentiation of [3H]MTX influx [1] | Potentiation of [3H]MTX transport in RFC-transfected clones compared with CCRF-CEM [2] | Potentiation of [3H]MTX uptake in dCK-deficient subline [3] | Toxicity in clinical trials [4] | Potentiation of [3H]MTX uptake in araC 8C subline [5] | Potentiation of [3H]LV uptake (CCRF-CEM cells [6]) | Rel Corrected 30 min accumulation (relative to +Z, no inhibitor) [7] | Relative Corrected vi (relative to +Z, no inhibitor) [7] | Accumulation at 30 min ([7]; no inhibitor) [pmol] | Corrected 30 min accumulation (accum +Z minus accum −Z with same inhibitor) ([7]; no inhibitor) | Corrected vi (rate +Z minus rate −Z with same inhibitor) ([7]; no inhibitor) | vi ([7]; no inhibitor) [pmol/min] | Cytosol material that is MTX or metabolites (HPLC) (CCRF-CEM cells [8]) [%] | Radioactivity that is cytosolic, post-nuclear supernatant only (CCRF-CEM cells [8]; nuclear pellet excluded) [%] | Total recovered radioactivity in the cytosolic fraction (CCRF-CEM cells [8]; ±Z)
NC(=O)c1ncn([C@@H]2O[C@H](CO)[C@@H](O)[C@H]2O)c1N [Z, 5-amino-4-imidazolecarboxamide riboside] | potentiates | potentiated by Z to a similar extent | showed potentiation by Z, although to a slightly lower level | nontoxic | no potentiation | does not potentiate | 1 | 1 | 108.3 | 91.3 | 4.25 | 5.65 |  |  | 
CN(Cc1cnc2nc(N)nc(N)c2n1)c1ccc(C(=O)N[C@@H](CCC(=O)O)C(=O)O)cc1 [MTX, 4-amino-10-methylpteroylglutamic acid] |  |  |  |  |  |  |  |  |  |  |  |  | > 90 | > 98 | More than 91%
